Laboratory results taken from patent publication US20070049564A1 (Wyeth, priority 2005, published 2007).
Values after ≈ are worked out from the molar mass of the structure shown. Like-named read-outs stand apart in the source and are kept apart here.

Experiments:
[1] = tested on: P. aeruginosa GC 2214; assay: MIC, broth microdilution; details: Pseudomonas aeruginosa
[2] = tested on: E. coli GC 2203; assay: MIC, broth microdilution; details: Escherichia coli
[3] = tested on: Staph.; assay: Range of MIC for Staph. strains, including MRSA; details: Staphylococcus aureus
[4] = tested on: E. coli GC 4560; assay: MIC, broth microdilution; details: Escherichia coli
[5] = tested on: S. aureus GC 6469; assay: MIC, broth microdilution; details: Staphylococcus aureus
[6] = tested on: E. coli GC 4559; assay: MIC, broth microdilution; details: Escherichia coli
[7] = tested on: E. coli; assay: Range of MIC for E. coli strains; details: Escherichia coli
[8] = tested on: E. coli GC 2236; assay: MIC, broth microdilution; details: Escherichia coli
[9] = tested on: S. aureus GC 4536; assay: MIC, broth microdilution; details: Staphylococcus aureus
[10] = tested on: E. coli GC 1073; assay: MIC, broth microdilution; details: Escherichia coli
[11] = tested on: E. faecalis GC 2242; assay: MIC, broth microdilution; details: Enterococcus faecalis
[12] = tested on: S. agalactiae GC 4564; assay: MIC, broth microdilution; details: Streptococcus agalactiae
[13] = tested on: S. aureus GC 6467; assay: MIC, broth microdilution; details: Staphylococcus aureus
[14] = tested on: E. faecalis GC 4555; assay: MIC, broth microdilution; details: Enterococcus faecalis
Method: (§1) Antimicrobial susceptibility testing. The in vitro activities of the antibiotics are determined by the broth microdilution method as recommended by the National Committee for Clinical Laboratory Standards (NCCLS) (1). Mueller-Hinton II broth (MHBII)(BBL Cockeysville, Md.) is the medium employed in the testing procedures. Microtiter plates containing serial dilutions of each antimicrobial agent are inoculated with each organism to yield the appropriate density (10^5 CFU/ml) in a 100 μl final volume. The plates are incubated for 18-22 hours at 35° C. in ambient air.
Representative compounds were first incubated in mouse serum for an hour prior to the in vitro testing against a panel of selected gram-positive and gram-negative bacteria strains. All compounds were also pre-incubated in water for an hour prior to testing as control. Representative compounds of Formula I were incubated in human serum prior to MIC determination.

[15] = tested on: E. coli GC 2233; assay: MIC, broth microdilution; details: Escherichia coli
Method: as §1
Representative compounds were first incubated in mouse serum for an hour prior to the in vitro testing against a panel of selected gram-positive and gram-negative bacteria strains. All compounds were also pre-incubated in water for an hour prior to testing as control.

[16] = tested on: E. coli GC 2235; assay: MIC, broth microdilution; details: Escherichia coli
[17] = tested on: E. coli GC 2270; assay: MIC, broth microdilution; details: Escherichia coli
[18] = tested on: E. faecalis GC 2265; assay: MIC, broth microdilution; details: Enterococcus faecalis
[19] = tested on: E. coli GC 6465; assay: MIC, broth microdilution; details: Escherichia coli
[20] = tested on: E. coli GC 2271; assay: MIC, broth microdilution; details: Escherichia coli

CCC(=O)OCOC(=O)N(CC(=O)Nc1cc(N(C)C)c2c(c1O)C(=O)C1=C(O)[C@]3(O)C(=O)C(C(N)=O)=C(O)[C@@H](N(C)C)[C@@H]3C[C@@H]1C2)C(C)(C)C [Example 49, ({[(2-{[(5aR,6aS,7S,10aS)-9-(aminocarbonyl)-4,7-bis(dimethylamino)-1,8,10a,11-tetrahydroxy-10,12-dioxo-5,5a,6,6a,7,10,10a,12-octahydrotetracen-2-yl]amino}-2-oxoethyl)(tert-butyl)amino]carbonyl}oxy)methyl propionate]
MIC ([1]; GC2214, read-out: MINIMAL INHIBITORY CONCENTRATION MIC, Human Serum): > 64 µg/mL | MIC ([1]; GC2214, read-out: MINIMAL INHIBITORY CONCENTRATION MIC, Mouse Serum): 32 µg/mL (≈ 44.7 µM) | MIC ([1]; GC2214, read-out: MINIMAL INHIBITORY CONCENTRATION MIC, Water): > 64 µg/mL | MIC ([2]; GC2203, read-out: MINIMAL INHIBITORY CONCENTRATION MIC, Human Serum): 4 µg/mL (≈ 5.59 µM) | MIC ([2]; GC2203, read-out: MINIMAL INHIBITORY CONCENTRATION MIC, Mouse Serum): 0.25 µg/mL (≈ 0.349 µM) | MIC ([2]; GC2203, read-out: MINIMAL INHIBITORY CONCENTRATION MIC, Water): 8 µg/mL (≈ 11.2 µM) | MIC ([3]; MRSA, read-out: Range of MIC, Staph (Mouse Serum)): 0.12 to 1 µg/mL (≈ 0.168 to 1.4 µM) | MIC ([3]; MRSA, read-out: Range of MIC, Staph (Water)): 0.12 to 2 µg/mL (≈ 0.168 to 2.79 µM) | MIC ([3]; read-out: Minimum inhibitory concentration (MIC), Staph (Human Serum)): 0.12 to 1 µg/mL (≈ 0.168 to 1.4 µM) | MIC ([3]; read-out: Minimum inhibitory concentration (MIC), Staph (Water)): 0.12 to 2 µg/mL (≈ 0.168 to 2.79 µM) | MIC ([4]; GC4560, read-out: MINIMAL INHIBITORY CONCENTRATION MIC, Human Serum): 0.5 µg/mL (≈ 0.699 µM) | MIC ([4]; GC4560, read-out: MINIMAL INHIBITORY CONCENTRATION MIC, Mouse Serum): 0.12 µg/mL (≈ 0.168 µM) | MIC ([4]; GC4560, read-out: MINIMAL INHIBITORY CONCENTRATION MIC, Water): 1 µg/mL (≈ 1.4 µM) | MIC ([5]; GC6469, read-out: MINIMAL INHIBITORY CONCENTRATION MIC, Human Serum): 1 µg/mL (≈ 1.4 µM) | MIC ([5]; GC6469, read-out: MINIMAL INHIBITORY CONCENTRATION MIC, Mouse Serum): 1 µg/mL (≈ 1.4 µM) | MIC ([5]; GC6469, read-out: MINIMAL INHIBITORY CONCENTRATION MIC, Water): 1 µg/mL (≈ 1.4 µM) | MIC ([6]; GC4559, read-out: MINIMAL INHIBITORY CONCENTRATION MIC, Human Serum): 8 µg/mL (≈ 11.2 µM) | MIC ([6]; GC4559, read-out: MINIMAL INHIBITORY CONCENTRATION MIC, Mouse Serum): 0.5 µg/mL (≈ 0.699 µM) | MIC ([6]; GC4559, read-out: MINIMAL INHIBITORY CONCENTRATION MIC, Water): 16 µg/mL (≈ 22.4 µM) | MIC ([7]; 20 h, read-out: Range of MIC, E. coli (Mouse Serum)): 0.25 to 2 µg/mL (≈ 0.349 to 2.79 µM) | MIC ([7]; read-out: Minimum inhibitory concentration (MIC), E. coli (Human Serum)): 4 to 32 µg/mL (≈ 5.59 to 44.7 µM) | MIC ([8]; GC2236, read-out: MINIMAL INHIBITORY CONCENTRATION MIC, Human Serum): 4 µg/mL (≈ 5.59 µM) | MIC ([8]; GC2236, read-out: MINIMAL INHIBITORY CONCENTRATION MIC, Mouse Serum): 0.5 µg/mL (≈ 0.699 µM) | MIC ([8]; GC2236, read-out: MINIMAL INHIBITORY CONCENTRATION MIC, Water): 16 µg/mL (≈ 22.4 µM) | MIC ([9]; GC4536, read-out: MINIMAL INHIBITORY CONCENTRATION MIC, Human Serum): 0.25 µg/mL (≈ 0.349 µM) | MIC ([9]; GC4536, read-out: MINIMAL INHIBITORY CONCENTRATION MIC, Mouse Serum): 0.25 µg/mL (≈ 0.349 µM) | MIC ([9]; GC4536, read-out: MINIMAL INHIBITORY CONCENTRATION MIC, Water): 0.25 µg/mL (≈ 0.349 µM) | MIC ([10]; GC1073, read-out: MINIMAL INHIBITORY CONCENTRATION MIC, Human Serum): 8 µg/mL (≈ 11.2 µM) | MIC ([10]; GC1073, read-out: MINIMAL INHIBITORY CONCENTRATION MIC, Mouse Serum): 0.5 µg/mL (≈ 0.699 µM) | MIC ([10]; GC1073, read-out: MINIMAL INHIBITORY CONCENTRATION MIC, Water): 32 µg/mL (≈ 44.7 µM) | MIC ([11]; GC2242, read-out: MINIMAL INHIBITORY CONCENTRATION MIC, Human Serum): 1 µg/mL (≈ 1.4 µM) | MIC ([11]; GC2242, read-out: MINIMAL INHIBITORY CONCENTRATION MIC, Mouse Serum): 0.5 µg/mL (≈ 0.699 µM) | MIC ([11]; GC2242, read-out: MINIMAL INHIBITORY CONCENTRATION MIC, Water): 2 µg/mL (≈ 2.79 µM) | MIC ([12]; GC4564, read-out: MINIMAL INHIBITORY CONCENTRATION MIC, Human Serum): 0.12 µg/mL (≈ 0.168 µM) | MIC ([12]; GC4564, read-out: MINIMAL INHIBITORY CONCENTRATION MIC, Mouse Serum): 0.12 µg/mL (≈ 0.168 µM) | MIC ([12]; GC4564, read-out: MINIMAL INHIBITORY CONCENTRATION MIC, Water): 0.25 µg/mL (≈ 0.349 µM) | MIC ([13]; GC6467, read-out: MINIMAL INHIBITORY CONCENTRATION MIC, Human Serum): 1 µg/mL (≈ 1.4 µM) | MIC ([13]; GC6467, read-out: MINIMAL INHIBITORY CONCENTRATION MIC, Mouse Serum): 1 µg/mL (≈ 1.4 µM) | MIC ([13]; GC6467, read-out: MINIMAL INHIBITORY CONCENTRATION MIC, Water): 2 µg/mL (≈ 2.79 µM) | MIC ([14]; GC4555, read-out: MINIMAL INHIBITORY CONCENTRATION MIC, Human Serum): 0.5 µg/mL (≈ 0.699 µM) | MIC ([14]; GC4555, read-out: MINIMAL INHIBITORY CONCENTRATION MIC, Mouse Serum): 0.25 µg/mL (≈ 0.349 µM) | MIC ([14]; GC4555, read-out: MINIMAL INHIBITORY CONCENTRATION MIC, Water): 4 µg/mL (≈ 5.59 µM) | MIC ([15]; GC2233, read-out: MINIMAL INHIBITORY CONCENTRATION MIC, Human Serum): 4 µg/mL (≈ 5.59 µM) | MIC ([15]; GC2233, read-out: MINIMAL INHIBITORY CONCENTRATION MIC, Mouse Serum): 0.25 µg/mL (≈ 0.349 µM) | MIC ([15]; GC2233, read-out: MINIMAL INHIBITORY CONCENTRATION MIC, Water): 8 µg/mL (≈ 11.2 µM) | MIC ([16]; GC2235, read-out: MINIMAL INHIBITORY CONCENTRATION MIC, Human Serum): 4 µg/mL (≈ 5.59 µM) | MIC ([16]; GC2235, read-out: MINIMAL INHIBITORY CONCENTRATION MIC, Mouse Serum): 0.5 µg/mL (≈ 0.699 µM) | MIC ([16]; GC2235, read-out: MINIMAL INHIBITORY CONCENTRATION MIC, Water): 8 µg/mL (≈ 11.2 µM) | MIC ([17]; GC2270, read-out: MINIMAL INHIBITORY CONCENTRATION MIC, Human Serum): 4 µg/mL (≈ 5.59 µM) | MIC ([17]; GC2270, read-out: MINIMAL INHIBITORY CONCENTRATION MIC, Mouse Serum): 0.5 µg/mL (≈ 0.699 µM) | MIC ([17]; GC2270, read-out: MINIMAL INHIBITORY CONCENTRATION MIC, Water): 16 µg/mL (≈ 22.4 µM) | MIC ([18]; GC2265, read-out: MINIMAL INHIBITORY CONCENTRATION MIC, Human Serum): 1 µg/mL (≈ 1.4 µM) | MIC ([18]; GC2265, read-out: MINIMAL INHIBITORY CONCENTRATION MIC, Mouse Serum): 0.5 µg/mL (≈ 0.699 µM) | MIC ([18]; GC2265, read-out: MINIMAL INHIBITORY CONCENTRATION MIC, Water): 2 µg/mL (≈ 2.79 µM) | MIC ([19]; GC6465, read-out: MINIMAL INHIBITORY CONCENTRATION MIC, Human Serum): 32 µg/mL (≈ 44.7 µM) | MIC ([19]; GC6465, read-out: MINIMAL INHIBITORY CONCENTRATION MIC, Mouse Serum): 2 µg/mL (≈ 2.79 µM) | MIC ([19]; GC6465, read-out: MINIMAL INHIBITORY CONCENTRATION MIC, Water): > 64 µg/mL | MIC ([20]; GC2271, read-out: MINIMAL INHIBITORY CONCENTRATION MIC, Human Serum): 4 µg/mL (≈ 5.59 µM) | MIC ([20]; GC2271, read-out: MINIMAL INHIBITORY CONCENTRATION MIC, Mouse Serum): 0.25 µg/mL (≈ 0.349 µM) | MIC ([20]; GC2271, read-out: MINIMAL INHIBITORY CONCENTRATION MIC, Water): 8 µg/mL (≈ 11.2 µM)
